Test results reported in PMC3812281, “Synthetic Oxoisoaporphine Alkaloids: In Vitro, In Vivo and In Silico Assessment of Antileishmanial Activities” (PLoS ONE, 2013).

target: T1, acetylcholinesterase (AChE) (Homo sapiens, UniProt P22303); assay: Ellman assay, percent inhibition at […]; assay type: biochemical
T1 construct: recombinant acetylcholinesterase (AChE) expressed in HEK 293 cells
T1 sequence (P22303 32-614): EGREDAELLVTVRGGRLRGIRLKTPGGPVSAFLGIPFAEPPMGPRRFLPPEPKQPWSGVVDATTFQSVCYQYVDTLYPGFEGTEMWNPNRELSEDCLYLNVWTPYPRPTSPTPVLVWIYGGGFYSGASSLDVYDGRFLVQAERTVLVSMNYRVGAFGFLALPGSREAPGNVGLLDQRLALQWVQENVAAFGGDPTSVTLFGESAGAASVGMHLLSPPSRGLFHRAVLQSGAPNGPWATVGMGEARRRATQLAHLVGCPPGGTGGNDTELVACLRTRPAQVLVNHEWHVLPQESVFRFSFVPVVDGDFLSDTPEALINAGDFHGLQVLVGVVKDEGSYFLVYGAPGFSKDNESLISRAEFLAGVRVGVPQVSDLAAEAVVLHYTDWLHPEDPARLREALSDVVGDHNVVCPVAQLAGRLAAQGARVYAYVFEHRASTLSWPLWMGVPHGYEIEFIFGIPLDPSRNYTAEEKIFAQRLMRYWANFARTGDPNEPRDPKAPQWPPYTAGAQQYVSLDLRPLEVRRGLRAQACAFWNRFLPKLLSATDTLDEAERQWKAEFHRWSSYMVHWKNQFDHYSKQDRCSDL

| Compound | inhibition at 75 µM [%] |
| --- | --- |
| O=C1c2ccccc2C2=NCCc3cccc1c32 [OXO 1, 2,3-dihydro-7H-dibenzo[de,h]quinolin-7-one] | 26.2 ± 5.6 |
| O=C1C2=C(CCCC2)C2=NCCc3cccc1c32 [OXO 13, 2,3,8,9,10,11-hexahydro-7H-dibenzo[de,h]quinolin-7-one] | 25.6 ± 5.9 |
| C#CCN[C@@H]1CCc2ccccc21 [Rasagiline, reference compound] | 82.5 ± 4.3 |
